{
  "source": "ChEMBL document CHEMBL5126551",
  "about": "“Spiral molecules with antimalarial activities: A review” (Eur J Med Chem, 2022)",
  "key": {"Plasmodium falciparum [1]": {"system": "Plasmodium falciparum", "assay": "Antimalarial activity against chloroquine-sensitive Plasmodium falciparum 3D7 assessed as reduction in parasite growth incubated for 72 hrs by SYBR green I-based DNA quantification assay", "assay_type": "functional, organism-based", "settings": "3D7, 72 h"}, "Plasmodium falciparum [2]": {"system": "Plasmodium falciparum", "assay": "Antimalarial activity against Plasmodium falciparum K1 infected in human red blood cells assessed as inhibition of parasite growth incubated for 48 hrs by Giema staining based assay", "assay_type": "functional, organism-based, Red blood cell", "settings": "K1, Erythrocyte"}, "Plasmodium falciparum [3]": {"system": "Plasmodium falciparum", "assay": "Antimalarial activity against chloroquine-resistant Plasmodium falciparum FCB-2 infected in human erythrocyte assessed as inhibition of parasite growth incubated for 48 hrs by [3H]-hypoxanthine incorporation assay based liquid scintillation counter method", "assay_type": "functional, organism-based", "settings": "FCB-2, Erythrocyte"}, "Plasmodium falciparum [4]": {"system": "Plasmodium falciparum", "assay": "Antimalarial activity against chloroquine, amodiaquine, quinine and artesunate-resistant Plasmodium falciparum NF-54 infected in human erythrocyte assessed as inhibition of parasite growth incubated for 48 hrs by [3H]-hypoxanthine incorporation assay based liquid scintillation counter method", "assay_type": "functional, organism-based", "settings": "NF-54, Erythrocyte"}, "Plasmodium falciparum [5]": {"system": "Plasmodium falciparum", "assay": "Antimalarial activity against chloroquine-sensitive Plasmodium falciparum 3D7 infected in human erythrocyte assessed as inhibition of parasite growth incubated for 66 hrs by [3H]-hypoxanthine incorporation assay based liquid scintillation spectrometric method", "assay_type": "functional, organism-based", "settings": "3D7, Erythrocyte"}, "Plasmodium falciparum [6]": {"system": "Plasmodium falciparum", "assay": "Antimalarial activity against Plasmodium falciparum infected in human […] assessed as inhibition of parasite growth incubated for 30 hrs by [3H]-hypoxanthine incorporation assay based liquid scintillation spectrometric method", "assay_type": "functional, organism-based"}, "Plasmodium falciparum [7]": {"system": "Plasmodium falciparum", "assay": "Antimalarial activity against multidrug-resistant Plasmodium falciparum Dd2 infected in human red blood cells assessed as reduction in parasite growth incubated for 72 hrs by SYBR green I-based DNA quantification assay", "assay_type": "functional, organism-based, Red blood cell", "settings": "Dd2, Erythrocyte"}, "Plasmodium falciparum [8]": {"system": "Plasmodium falciparum", "assay": "Antimalarial activity against chloroquine-sensitive Plasmodium falciparum NF54 infected in human red blood cells assessed as reduction in parasite growth incubated for 72 hrs by SYBR green I-based DNA quantification assay", "assay_type": "functional, organism-based, Red blood cell", "settings": "NF54, Erythrocyte"}, "Plasmodium falciparum [9]": {"system": "Plasmodium falciparum", "assay": "Antimalarial activity against chloroquine-sensitive Plasmodium falciparum 3D7 infected in human red blood cells assessed as reduction in parasite growth incubated for 72 hrs by SYBR green I-based DNA quantification assay", "assay_type": "functional, organism-based, Red blood cell", "settings": "3D7, Erythrocyte"}, "Plasmodium falciparum [10]": {"system": "Plasmodium falciparum", "assay": "Antimalarial activity against chloroquine resistant Plasmodium falciparum K1 assessed as inhibition of parasite growth incubated for 72 hrs by HRP2-based ELISA assay", "assay_type": "functional, organism-based", "settings": "K1, 72 h"}, "Plasmodium falciparum [11]": {"system": "Plasmodium falciparum", "assay": "Antimalarial activity against multidrug-resistant early ring stage Plasmodium falciparum K14 infected in human erythrocytes assessed as inhibition of parasite growth incubated for 48 hrs by [3H]-hypoxanthine incorporation assay", "assay_type": "functional, organism-based", "settings": "K14, Erythrocyte"}, "Plasmodium falciparum [12]": {"system": "Plasmodium falciparum", "assay": "Antimalarial activity against drug-resistant Plasmodium falciparum K1 assessed as inhibition of parasite growth", "assay_type": "functional, organism-based"}, "Plasmodium falciparum [13]": {"system": "Plasmodium falciparum", "assay": "Antimalarial activity against drug-sensitive Plasmodium falciparum FCR3 assessed as inhibition of parasite growth", "assay_type": "functional, organism-based"}, "Plasmodium falciparum [14]": {"system": "Plasmodium falciparum", "assay": "Antimalarial activity against chloroquine and pyrimethamine resistant Plasmodium falciparum K1 infected in human red blood cells assessed as inhibition of parasite growth incubated for 72 hrs by [3H]-hypoxanthine incorporation assay based liquid scintillation counter method", "assay_type": "functional, organism-based, Red blood cell", "settings": "K1, Erythrocyte"}, "Plasmodium falciparum [15]": {"system": "Plasmodium falciparum", "assay": "Antimalarial activity against chloroquine-sensitive Plasmodium falciparum NF54 infected in human red blood cells assessed as inhibition of parasite growth incubated for 72 hrs by [3H]-hypoxanthine incorporation assay based liquid scintillation counter method", "assay_type": "functional, organism-based, Red blood cell", "settings": "NF54, Erythrocyte"}, "Plasmodium falciparum [16]": {"system": "Plasmodium falciparum", "assay": "Antimalarial activity against Plasmodium falciparum Cam3.I^R539T assessed as inhibition of parasite growth measured after 6 hrs", "assay_type": "functional"}},
  "note": "pEC50, pIC50: −log10 of the molar value.",
  "data": [
    {"compound": "OC(CN1CCC2(CC1)CC(O)c1ccc3ccccc3c1O2)c1ccc(F)c(F)c1", "note": "(stereo unspecified)", "values": [
      {"measurement": "pEC50", "setting": "Plasmodium falciparum [1]", "value": 6.41}
    ]},
    {"compound": "O=C1CCCCC12Oc1c(Cl)cccc1C2=O", "note": "(stereo unspecified)", "values": [
      {"measurement": "IC50", "setting": "Plasmodium falciparum [2]", "value": 29.3, "unit": "mg/L"}
    ]},
    {"compound": "C[C@@H]1CC[C@]2(C[C@H]3C[C@H]4[C@@H]5CCC67OC6C(=O)CC[C@]7(C)[C@H]5CC[C@]4(C)[C@H]3[C@@H]2C)OC1", "note": "(stereo partly specified)", "values": [
      {"measurement": "pIC50", "setting": "Plasmodium falciparum [3]", "value": 5.00},
      {"measurement": "pIC50", "setting": "Plasmodium falciparum [4]", "value": 5.07}
    ]},
    {"compound": "CCCCCCCCCCCCCC1OC2CC(O)C=CC23C1C(=O)N3Cc1ccccc1", "note": "(stereo unspecified)", "values": [
      {"measurement": "pIC50", "setting": "Plasmodium falciparum [5]", "value": 6.07},
      {"measurement": "pIC50", "setting": "Plasmodium falciparum [6]", "value": 5.26}
    ]},
    {"compound": "COc1cc2c(cc1OC)C1(NCC2)C(=O)Nc2ccc(Cl)cc21", "note": "(stereo unspecified)", "values": [
      {"measurement": "pEC50", "setting": "Plasmodium falciparum [7]", "value": 5.76},
      {"measurement": "pEC50", "setting": "Plasmodium falciparum [8]", "value": 6.16},
      {"measurement": "pEC50", "setting": "Plasmodium falciparum [9]", "value": 5.73}
    ]},
    {"compound": "COc1ccc(COCCC2NCCC23C(=O)Nc2ccccc23)cc1", "note": "(stereo unspecified)", "values": [
      {"measurement": "pIC50", "setting": "Plasmodium falciparum [10]", "value": 4.97}
    ]},
    {"compound": "O=C1C=Cc2cc(O)c(O)cc2C12C(=O)C=Cc1cc(O)c(O)cc12", "values": [
      {"measurement": "pIC50", "setting": "Plasmodium falciparum [11]", "value": 5.63}
    ]},
    {"compound": "CNCCc1cc(Br)c(OCCCNC(=O)N(C)CCc2cc(Br)c(OCCCNC(=O)C3=NO[C@]4(CC(Br)=C(OC)C(Br)=CO4)[C@@H]3O)c(Br)c2)c(Br)c1", "values": [
      {"measurement": "IC50", "setting": "Plasmodium falciparum [12]", "value": 1.03, "unit": "mg/L"},
      {"measurement": "IC50", "setting": "Plasmodium falciparum [13]", "value": 0.77, "unit": "mg/L"}
    ]},
    {"compound": "CCCCCCCCCCCCC[C@@H]1C[C@@H](O)C[C@]2(CCC3(C=CC(=O)C=C3)O2)O1", "note": "[ACULEATIN A]", "values": [
      {"measurement": "pIC50", "setting": "Plasmodium falciparum [14]", "value": 6.74},
      {"measurement": "pIC50", "setting": "Plasmodium falciparum [15]", "value": 6.70}
    ]},
    {"compound": "C[C@H]1[C@@H](O)O[C@@H]2O[C@@]3(C)CC[C@H]4[C@H](C)CC[C@@H]1[C@@]24OO3", "note": "[ARTENIMOL]", "values": [
      {"measurement": "IC90", "setting": "Plasmodium falciparum [16]", "value": 0.0027, "unit": "mg/L"}
    ]}
  ]
}
